Biological target: T1, hQ23 (HEK-293 cell line stably transfected with one of the members of the KCNQ family) (Homo sapiens, UniProt O43525+O43526)
T1 construct: expressed in transfected cells; host or cells: HEK-293, stably transfected
Experiment: Thallium flux assay for KCNQ channel blockers (FLIPR, BTC dye)
Type: cell-based
Settings: hQ23 cells, thallium flux assay
How it was run: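 FLIPR thallium flux readout (BTC dye, 2 μM AM ester) in stably transfected KCNQ HEK-293 cells, chloride-free HEPES buffer pH 7.3, Tl2SO4 stimulus. IC50s were fitted with a single-site logistic equation across 10 points at 1:3 dilutions, defined as 50% of positive-control block; minimal active concentration meant signal ≥4 SD over DMSO controls.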

T1 sequence (O43526 whole entry): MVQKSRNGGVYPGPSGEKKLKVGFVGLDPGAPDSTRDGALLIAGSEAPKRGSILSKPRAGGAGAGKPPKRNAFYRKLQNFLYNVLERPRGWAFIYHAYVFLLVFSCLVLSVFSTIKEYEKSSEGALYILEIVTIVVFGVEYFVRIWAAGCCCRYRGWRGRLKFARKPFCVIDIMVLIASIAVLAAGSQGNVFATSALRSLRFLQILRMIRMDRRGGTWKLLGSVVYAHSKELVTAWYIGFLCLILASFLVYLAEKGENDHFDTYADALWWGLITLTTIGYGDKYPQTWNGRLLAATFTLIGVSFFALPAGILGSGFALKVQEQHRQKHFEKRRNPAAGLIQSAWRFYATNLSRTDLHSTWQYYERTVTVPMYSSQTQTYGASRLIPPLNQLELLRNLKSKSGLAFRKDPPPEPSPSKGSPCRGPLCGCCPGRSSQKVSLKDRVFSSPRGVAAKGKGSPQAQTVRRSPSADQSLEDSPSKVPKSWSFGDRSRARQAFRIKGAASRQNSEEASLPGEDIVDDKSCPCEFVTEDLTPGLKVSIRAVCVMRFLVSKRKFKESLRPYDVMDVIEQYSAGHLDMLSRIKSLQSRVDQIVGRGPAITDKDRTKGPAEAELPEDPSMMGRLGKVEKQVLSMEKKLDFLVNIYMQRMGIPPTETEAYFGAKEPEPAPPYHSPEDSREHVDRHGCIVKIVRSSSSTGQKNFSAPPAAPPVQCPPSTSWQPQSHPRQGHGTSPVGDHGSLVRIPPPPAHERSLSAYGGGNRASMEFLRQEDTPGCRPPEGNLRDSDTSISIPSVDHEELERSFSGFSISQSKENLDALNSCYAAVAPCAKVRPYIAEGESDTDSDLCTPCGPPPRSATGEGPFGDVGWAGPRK
T1 sequence (O43525 whole entry): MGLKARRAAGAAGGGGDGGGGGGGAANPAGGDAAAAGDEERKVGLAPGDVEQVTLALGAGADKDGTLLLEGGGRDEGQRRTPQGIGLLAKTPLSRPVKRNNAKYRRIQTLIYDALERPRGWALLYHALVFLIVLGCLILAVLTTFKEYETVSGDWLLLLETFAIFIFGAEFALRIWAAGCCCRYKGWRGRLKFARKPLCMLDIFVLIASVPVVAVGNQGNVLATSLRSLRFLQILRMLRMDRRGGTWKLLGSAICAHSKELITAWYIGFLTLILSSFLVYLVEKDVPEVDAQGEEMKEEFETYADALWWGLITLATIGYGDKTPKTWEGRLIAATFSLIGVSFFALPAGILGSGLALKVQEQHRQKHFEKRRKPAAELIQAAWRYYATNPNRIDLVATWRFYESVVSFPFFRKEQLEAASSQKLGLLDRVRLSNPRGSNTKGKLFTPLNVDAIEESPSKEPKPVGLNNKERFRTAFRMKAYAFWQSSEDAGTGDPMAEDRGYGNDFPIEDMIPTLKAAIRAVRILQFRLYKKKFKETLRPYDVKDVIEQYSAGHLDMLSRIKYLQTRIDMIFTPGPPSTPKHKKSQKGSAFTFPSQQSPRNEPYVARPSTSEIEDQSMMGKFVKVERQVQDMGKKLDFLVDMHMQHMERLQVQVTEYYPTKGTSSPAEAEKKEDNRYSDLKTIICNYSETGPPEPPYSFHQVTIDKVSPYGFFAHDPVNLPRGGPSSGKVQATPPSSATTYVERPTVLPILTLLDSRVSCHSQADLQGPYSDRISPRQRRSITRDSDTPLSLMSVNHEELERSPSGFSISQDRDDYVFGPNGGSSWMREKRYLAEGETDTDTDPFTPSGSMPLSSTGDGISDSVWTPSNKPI

Compound	EC50 [nM]
CC1CCN(c2ncc(C(=O)NC(C)c3cccc4ccccc34)c(C3(c4ccc(F)cc4)CCCC3)n2)CC1 (stereo not shown) [Example 245, 5-pyrimidinecarboxamide, 4-[1-(4-fluorophenyl)cyclopentyl]-2-(4-methyl-1-piperidinyl)-N-[1-(1-naphthalenyl)ethyl]-]	10
CCC(C)Nc1ncc(C(=O)NC(C)c2cccc3ccccc23)c(C2(c3ccc(F)cc3)CCCC2)n1 (stereo not shown) [Example 246, 5-pyrimidinecarboxamide, 4-[1-(4-fluorophenyl)cyclopentyl]-2-[(1-methylpropyl)amino]-N-[1-(1-naphthalenyl)ethyl]-]	177
CC1CCC(Nc2ncc(C(=O)NCc3cccc4ccccc34)c(C3(c4ccc(F)cc4)CCCC3)n2)CC1 (stereo not shown) [Example 248, 5-pyrimidinecarboxamide, 4-[1-(4-fluorophenyl)cyclopentyl]-2-[(4-methylcyclohexyl)amino]-N-(1-naphthalenylmethyl)-]	10
O=C(NCc1cccc2ccccc12)c1cnc(N2CCCC2)nc1C1(c2ccc(F)cc2)CCCC1 [Example 249, 5-pyrimidinecarboxamide, 4-[1-(4-fluorophenyl)cyclopentyl]-N-(1-naphthalenylmethyl)-2-(1-pyrrolidinyl)-]	278
CC1CCN(c2ncc(C(=O)NCc3cccc4ccccc34)c(C3(c4ccc(F)cc4)CCCC3)n2)CC1 [Example 251, 5-pyrimidinecarboxamide, 4-[1-(4-fluorophenyl)cyclopentyl]-2-(4-methyl-1-piperidinyl)-N-(1-naphthalenylmethyl)-]	15
O=C(NCc1cccc2ccccc12)c1cnc(NC2CCCC2)nc1C1(c2ccc(F)cc2)CCCC1 [Example 253, 5-pyrimidinecarboxamide, 2-(cyclopentylamino)-4-[1-(4-fluorophenyl)cyclopentyl]-N-(1-naphthalenylmethyl)-]	183
CC1CCN(c2ncc(C(=O)NCc3ccc(Cl)c(Cl)c3)c(C3(c4ccc(F)cc4)CCCC3)n2)CC1 [Example 256, 5-pyrimidinecarboxamide, N-[(3,4-dichlorophenyl)methyl]-4-[1-(4-fluorophenyl)cyclopentyl]-2-(4-methyl-1-piperidinyl)-]	10
O=C(NCc1ccc(Cl)cc1Cl)c1cnc(NC2CC2)nc1C1(c2ccc(F)cc2)CCCC1 [Example 259, 5-pyrimidinecarboxamide, 2-(cyclopropylamino)-N-[(2,4-dichlorophenyl)methyl]-4-[1-(4-fluorophenyl)cyclopentyl]-]	869
O=C(NCc1ccc(Cl)cc1Cl)c1cnc(N2CCCC2)nc1C1(c2ccc(F)cc2)CCCC1 [Example 261, 5-pyrimidinecarboxamide, N-[(2,4-dichlorophenyl)methyl]-4-[1-(4-fluorophenyl)cyclopentyl]-2-(1-pyrrolidinyl)-]	28
CN1CCC(N(C)c2ncc(C(=O)NCc3ccc(Cl)cc3Cl)c(C3(c4ccc(F)cc4)CCCC3)n2)CC1 [Example 264, 5-pyrimidinecarboxamide, N-[(2,4-dichlorophenyl)methyl]-4-[1-(4-fluorophenyl)cyclopentyl]-2-[methyl(1-methyl-4-piperidinyl)amino]-]	282
O=C(NCc1ccc(Cl)cc1Cl)c1cnc(NC2CCCC2)nc1C1(c2ccc(F)cc2)CCCC1 [Example 266, 5-pyrimidinecarboxamide, 2-(cyclopentylamino)-N-[(2,4-dichlorophenyl)methyl]-4-[1-(4-fluorophenyl)cyclopentyl]-]	27
CC1CCC(Nc2ncc(C(=O)NCc3ccc(F)cc3F)c(C3(c4ccc(F)cc4)CCCC3)n2)CC1 (stereo not shown) [Example 267, 5-pyrimidinecarboxamide, N-[(2,4-difluorophenyl)methyl]-4-[1-(4-fluorophenyl)cyclopentyl]-2-[(4-methylcyclohexyl)amino]-]	48
CN1CCN(c2ncc(C(=O)NCc3ccc(F)cc3F)c(C3(c4ccc(F)cc4)CCCC3)n2)CC1 [Example 268, 5-pyrimidinecarboxamide, N-[(2,4-difluorophenyl)methyl]-4-[1-(4-fluorophenyl)cyclopentyl]-2-(4-methyl-1-piperazinyl)-]	634
CN(C)CCNc1ncc(C(=O)NCc2ccc(F)cc2F)c(C2(c3ccc(F)cc3)CCCC2)n1 [Example 272, 5-pyrimidinecarboxamide, N-[(2,4-difluorophenyl)methyl]-2-[[2-(dimethylamino)ethyl]amino]-4-[1-(4-fluorophenyl)cyclopentyl]-]	967
O=C(NCc1cc(F)cc(C(F)(F)F)c1)c1cnc(N2CCCC2)nc1C1(c2ccc(F)cc2)CCCC1 [Example 275, 5-pyrimidinecarboxamide, 4-[1-(4-fluorophenyl)cyclopentyl]-N-[[3-fluoro-5-(trifluoromethyl)phenyl]methyl]-2-(1-pyrrolidinyl)-]	24

Further compounds by falling EC50, results first:

EC50 [nM]	Compound
904	CN(C)CCNc1ncc(C(=O)NCc2ccc(Cl)c(Cl)c2)c(C2(c3ccc(F)cc3)CCCC2)n1 [Example 257, 5-pyrimidinecarboxamide, N-[(3,4-dichlorophenyl)methyl]-2-[[2-(dimethylamino)ethyl]amino]-4-[1-(4-fluorophenyl)cyclopentyl]-]
532	CN1CCC(N(C)c2ncc(C(=O)NCc3ccc(F)cc3F)c(C3(c4ccc(F)cc4)CCCC3)n2)CC1 [Example 271, 5-pyrimidinecarboxamide, N-[(2,4-difluorophenyl)methyl]-4-[1-(4-fluorophenyl)cyclopentyl]-2-[methyl(1-methyl-4-piperidinyl)amino]-]
529	CN1CCN(c2ncc(C(=O)NCc3ccc(Cl)c(Cl)c3)c(C3(c4ccc(F)cc4)CCCC3)n2)CC1 [Example 254, 5-pyrimidinecarboxamide, N-[(3,4-dichlorophenyl)methyl]-4-[1-(4-fluorophenyl)cyclopentyl]-2-(4-methyl-1-piperazinyl)-]
350	CCC(C)Nc1ncc(C(=O)NCc2cccc3ccccc23)c(C2(c3ccc(F)cc3)CCCC2)n1 (stereo not shown) [Example 252, 5-pyrimidinecarboxamide, 4-[1-(4-fluorophenyl)cyclopentyl]-2-[(1-methylpropyl)amino]-N-(1-naphthalenylmethyl)-]
327	CN1CCN(c2ncc(C(=O)NCc3cc(F)cc(C(F)(F)F)c3)c(C3(c4ccc(F)cc4)CCCC3)n2)CC1 [Example 276, 5-pyrimidinecarboxamide, 4-[1-(4-fluorophenyl)cyclopentyl]-N-[[3-fluoro-5-(trifluoromethyl)phenyl]methyl]-2-(4-methyl-1-piperazinyl)-]
142	CC1CCN(c2ncc(C(=O)NCc3ccc(F)cc3F)c(C3(c4ccc(F)cc4)CCCC3)n2)CC1 [Example 270, 5-pyrimidinecarboxamide, N-[(2,4-difluorophenyl)methyl]-4-[1-(4-fluorophenyl)cyclopentyl]-2-(4-methyl-1-piperidinyl)-]
138	CCC(C)Nc1ncc(C(=O)NCc2ccc(Cl)cc2Cl)c(C2(c3ccc(F)cc3)CCCC2)n1 (stereo not shown) [Example 265, 5-pyrimidinecarboxamide, N-[(2,4-dichlorophenyl)methyl]-4-[1-(4-fluorophenyl)cyclopentyl]-2-[(1-methylpropyl)amino]-]
115	O=C(NCc1ccc(F)cc1F)c1cnc(NC2CCCC2)nc1C1(c2ccc(F)cc2)CCCC1 [Example 273, 5-pyrimidinecarboxamide, 2-(cyclopentylamino)-N-[(2,4-difluorophenyl)methyl]-4-[1-(4-fluorophenyl)cyclopentyl]-]
92	CC(NC(=O)c1cnc(NC2CCCC2)nc1C1(c2ccc(F)cc2)CCCC1)c1cccc2ccccc12 (stereo not shown) [Example 247, 5-pyrimidinecarboxamide, 2-(cyclopentylamino)-4-[1-(4-fluorophenyl)cyclopentyl]-N-[1-(1-naphthalenyl)ethyl]-]
91	O=C(NCc1ccc(Cl)c(Cl)c1)c1cnc(NC2CCCC2)nc1C1(c2ccc(F)cc2)CCCC1 [Example 258, 5-pyrimidinecarboxamide, 2-(cyclopentylamino)-N-[(3,4-dichlorophenyl)methyl]-4-[1-(4-fluorophenyl)cyclopentyl]-]
56	CC1CCCN(c2ncc(C(=O)NCc3ccc(F)cc3F)c(C3(c4ccc(F)cc4)CCCC3)n2)C1 (stereo not shown) [Example 269, 5-pyrimidinecarboxamide, N-[(2,4-difluorophenyl)methyl]-4-[1-(4-fluorophenyl)cyclopentyl]-2-(3-methyl-1-piperidinyl)-]
29	CC1CCC(Nc2ncc(C(=O)NCc3cc(F)cc(C(F)(F)F)c3)c(C3(c4ccc(F)cc4)CCCC3)n2)CC1 (stereo not shown) [Example 274, 5-pyrimidinecarboxamide, 4-[1-(4-fluorophenyl)cyclopentyl]-N-[[3-fluoro-5-(trifluoromethyl)phenyl]methyl]-2-[(4-methylcyclohexyl)amino]-]
10	CC1CCCN(c2ncc(C(=O)NCc3cccc4ccccc34)c(C3(c4ccc(F)cc4)CCCC3)n2)C1 (stereo not shown) [Example 250, 5-pyrimidinecarboxamide, 4-[1-(4-fluorophenyl)cyclopentyl]-2-(3-methyl-1-piperidinyl)-N-(1-naphthalenylmethyl)-]
10	CC1CCCN(c2ncc(C(=O)NCc3ccc(Cl)c(Cl)c3)c(C3(c4ccc(F)cc4)CCCC3)n2)C1 (stereo not shown) [Example 255, 5-pyrimidinecarboxamide, N-[(3,4-dichlorophenyl)methyl]-4-[1-(4-fluorophenyl)cyclopentyl]-2-(3-methyl-1-piperidinyl)-]
10	CC1CCC(Nc2ncc(C(=O)NCc3ccc(Cl)cc3Cl)c(C3(c4ccc(F)cc4)CCCC3)n2)CC1 (stereo not shown) [Example 260, 5-pyrimidinecarboxamide, N-[(2,4-dichlorophenyl)methyl]-4-[1-(4-fluorophenyl)cyclopentyl]-2-[(4-methylcyclohexyl)amino]-]
10	CC1CCCN(c2ncc(C(=O)NCc3ccc(Cl)cc3Cl)c(C3(c4ccc(F)cc4)CCCC3)n2)C1 (stereo not shown) [Example 262, 5-pyrimidinecarboxamide, N-[(2,4-dichlorophenyl)methyl]-4-[1-(4-fluorophenyl)cyclopentyl]-2-(3-methyl-1-piperidinyl)-]

Reference: patent US7091202B2, “4-arylspirocycloalkyl-2-aminopyrimidine carboxamide KCNQ potassium channel modulators” (Bristol-Myers Squibb Company, priority 2004, dated 2006)
